Results taken from the NIST ThermoML archive (doi:10.1016/j.jct.2016.12.033).

Assay: mn = molality of the nth substance listed, in mol/kg
Conditions: 101.3 kPa, Liquid; for viscosity: Capillary tube (Ostwald / Ubbelohde) method; for mass density: Pycnometric method

O=C1O[C@H]([C@@H](O)CO)C([O-])=C1O.[Na+] [sodium L-ascorbate] + O
Conditions	mass density [kg/m3]	viscosity [mPa·s]
275.15 K, m1 = 0.01	1001.05	1.68
275.15 K, m1 = 0.0201	1002.2	1.691
275.15 K, m1 = 0.0303	1003.31	1.703
275.15 K, m1 = 0.0348	1003.83	1.703
275.15 K, m1 = 0.04	1004.41	1.706
275.15 K, m1 = 0.0451	1004.94	1.708
275.15 K, m1 = 0.05	1005.5	1.718
275.15 K, m1 = 0.0598	1006.59	1.727
275.15 K, m1 = 0.0699	1007.71	1.736
275.15 K, m1 = 0.0749	1008.27	1.745
275.15 K, m1 = 0.0835	1009.12	1.748
275.15 K, m1 = 0.0849	1009.32	1.747
275.15 K, m1 = 0.0902	1009.85	1.757
275.15 K, m1 = 0.0999	1010.96	1.765
277.15 K, m1 = 0.01	1001.09	1.572
277.15 K, m1 = 0.02	1002.17	1.578
277.15 K, m1 = 0.0301	1003.31	1.586
277.15 K, m1 = 0.0351	1003.85	1.591
277.15 K, m1 = 0.0402	1004.45	1.595
277.15 K, m1 = 0.05	1005.5	1.601
277.15 K, m1 = 0.0601	1006.59	1.609
277.15 K, m1 = 0.065	1007.13	1.616
277.15 K, m1 = 0.0697	1007.7	1.619
277.15 K, m1 = 0.075	1008.2	1.626
277.15 K, m1 = 0.0798	1008.75	1.628
277.15 K, m1 = 0.0851	1009.29	1.634
277.15 K, m1 = 0.0898	1009.82	1.641
277.15 K, m1 = 0.1003	1010.95	1.646
279.15 K, m1 = 0.0105	1001.12	1.479
279.15 K, m1 = 0.0201	1002.16	1.482
279.15 K, m1 = 0.0301	1003.23	1.491
279.15 K, m1 = 0.0348	1003.74	1.494
279.15 K, m1 = 0.0402	1004.33	1.498
279.15 K, m1 = 0.045	1004.84	1.503
279.15 K, m1 = 0.0501	1005.39	1.506
279.15 K, m1 = 0.0602	1006.49	1.516
279.15 K, m1 = 0.065	1007.01	1.52
279.15 K, m1 = 0.0699	1007.54	1.531
279.15 K, m1 = 0.0752	1008.12	1.532
279.15 K, m1 = 0.0852	1009.19	1.538
279.15 K, m1 = 0.0904	1009.74	1.541
279.15 K, m1 = 0.1005	1010.79	1.548
